Assay results published in patent US20080227819A1, “Method for identifying the agonistic activity of a target compound on a potassium channel” (Gruenenthal GmbH, priority 2007, published 2008).

Legend:
Format in all cases: cell-based
[1] = molecular target: T1, KCNQ2 channels and KCNQ3 channels (Homo sapiens, UniProt O43525+O43526); assay: ion jump assay format for searching for potassium channel blockers (potassium injection to extracellular medium); conditions: KCl final concentration 91.8 mM, FIG. 3
T1 construct: expressed in transfected cells; host or cells: CHO cells (Chinese hamster ovary cells)
T1 sequence (O43525 whole entry): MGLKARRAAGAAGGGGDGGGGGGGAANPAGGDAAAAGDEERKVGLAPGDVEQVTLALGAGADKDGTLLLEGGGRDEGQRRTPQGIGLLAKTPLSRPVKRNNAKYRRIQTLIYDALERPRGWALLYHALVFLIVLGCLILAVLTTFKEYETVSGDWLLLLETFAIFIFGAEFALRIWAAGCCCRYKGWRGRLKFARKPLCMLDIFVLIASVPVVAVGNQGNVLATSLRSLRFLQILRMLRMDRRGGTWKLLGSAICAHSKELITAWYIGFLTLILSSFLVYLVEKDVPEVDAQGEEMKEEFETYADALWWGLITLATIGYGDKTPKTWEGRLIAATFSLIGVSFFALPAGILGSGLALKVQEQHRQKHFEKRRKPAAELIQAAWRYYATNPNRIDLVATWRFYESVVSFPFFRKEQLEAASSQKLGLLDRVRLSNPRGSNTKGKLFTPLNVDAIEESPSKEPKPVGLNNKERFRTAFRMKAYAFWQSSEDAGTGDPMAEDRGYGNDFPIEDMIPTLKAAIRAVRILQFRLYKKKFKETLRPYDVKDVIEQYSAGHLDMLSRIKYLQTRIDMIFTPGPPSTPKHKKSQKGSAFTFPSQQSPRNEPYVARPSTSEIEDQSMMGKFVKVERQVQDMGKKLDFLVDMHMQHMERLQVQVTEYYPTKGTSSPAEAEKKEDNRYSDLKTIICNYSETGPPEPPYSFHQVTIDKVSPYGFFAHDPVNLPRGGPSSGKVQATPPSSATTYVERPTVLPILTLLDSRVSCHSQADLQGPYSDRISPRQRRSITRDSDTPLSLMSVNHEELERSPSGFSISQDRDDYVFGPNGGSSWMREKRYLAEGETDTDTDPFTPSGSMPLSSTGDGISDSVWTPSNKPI
T1 sequence (O43526 whole entry): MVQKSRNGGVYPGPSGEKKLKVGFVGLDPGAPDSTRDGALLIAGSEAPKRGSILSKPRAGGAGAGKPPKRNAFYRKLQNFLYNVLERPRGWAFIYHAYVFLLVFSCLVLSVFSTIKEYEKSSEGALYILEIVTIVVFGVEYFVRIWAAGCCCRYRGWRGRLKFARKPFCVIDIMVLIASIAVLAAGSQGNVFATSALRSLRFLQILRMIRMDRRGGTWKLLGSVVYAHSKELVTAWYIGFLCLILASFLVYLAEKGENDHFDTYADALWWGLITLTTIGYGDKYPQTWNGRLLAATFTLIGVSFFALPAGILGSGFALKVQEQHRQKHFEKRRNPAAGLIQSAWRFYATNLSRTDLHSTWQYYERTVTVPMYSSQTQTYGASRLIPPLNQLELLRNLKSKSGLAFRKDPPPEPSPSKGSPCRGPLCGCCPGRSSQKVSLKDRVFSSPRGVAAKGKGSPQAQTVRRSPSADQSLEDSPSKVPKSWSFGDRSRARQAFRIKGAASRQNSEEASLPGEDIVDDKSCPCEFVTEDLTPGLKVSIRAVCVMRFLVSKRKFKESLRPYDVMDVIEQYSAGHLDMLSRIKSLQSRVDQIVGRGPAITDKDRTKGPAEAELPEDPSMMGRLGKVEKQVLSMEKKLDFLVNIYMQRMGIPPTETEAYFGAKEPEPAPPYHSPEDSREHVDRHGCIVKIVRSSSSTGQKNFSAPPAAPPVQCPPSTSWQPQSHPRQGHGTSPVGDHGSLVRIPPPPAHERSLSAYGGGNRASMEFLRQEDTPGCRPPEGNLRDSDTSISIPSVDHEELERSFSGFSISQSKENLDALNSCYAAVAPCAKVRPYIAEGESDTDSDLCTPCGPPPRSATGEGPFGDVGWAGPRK
Description: FIG. 3: Influence of XE991 on the fluorescence response after potassium injection to the extracellular medium in a ion jump assay format for searching for potassium channel blockers. The time response of the fluorescence intensity of CHO cells expressing the KCNQ channels before and after the application (arrow) of […] potassium chloride is depicted.
The seeding of KCNQ-expressing cells in assay plates, the loading with the dye and the measurement devices to be used as well as the wavelengths to be set are in accordance with Example 1. […] Then the base line was monitored in the fluorescence reader for 3-4 min and the fluorescence values were measured for 10 min after the injection of 15 μl of a KCl solution (final concentration 91.8 mM) in each cavity of the plate.
In FIG. 3 the time response of the fluorescence intensity of CHO cells expressing the KCNQ channels before and after the application (arrow) of 91.8 mM potassium chloride is depicted. The fluorescence responses of the cells in the absence (Δ) and presence (▪) of the known KCNQ channel blocker XE991 (60 μM) are shown. The percental change in the fluorescence intensity (ΔF/F) based on the averaged fluorescence intensity before the potassium application is depicted.

[2] = molecular target: T1, KCNQ2 channels and KCNQ3 channels; assay: depolarisation assay format, voltage-sensitive fluorescent dye, CHO cells expressing KCNQ channels; conditions: saturating concentration of XE991 (60 μM), ΔF/F, control cells subtracted, FIG. 1
Description: FIG. 1: Effect of XE991 on the membrane potential of cells expressing KCNQ channels in a depolarisation assay format. The time response of the fluorescence intensity of CHO cells expressing KCNQ channels before and after the application (arrow) of a known KCNQ channel blocker (XE991, 60 μM) is depicted.
CHO cells (Chinese hamster ovary cells) expressing KCNQ2 channels and KCNQ3 channels were adherently cultivated in a nutrient medium [Minimum Essential Medium (MEM), α medium 22571 1×liquid (Invitrogen), 10% Fetal Calf Serum (FCS) (Gibco, heat inactivated), including selection antibiotics] at 37° C., 5% CO2 and 95% air humidity in cell culture bottles. […] After incubation with the dye, either 50 μl ES (control) or 50 μl of the KCNQ channel blocker XE991 in independent wells in a saturating concentration (final concentration 60 μM) were added and incubated for […] with concurrent monitoring of the fluorescence in the reader. The measurements were carried out by a Fluostar or Polarstar fluorescence reader of the company BMG or the FlexStation of the company Molecular Devices. It was excited at a wavelength of 525 nm and detected at a wavelength of 560 nm.
In FIG. 1 the time response of the fluorescence intensity of CHO cells expressing KCNQ channels before and after the application (arrow) of a known KCNQ channel blocker (XE991) is depicted. […]

[3] = molecular target: T1, KCNQ2 channels and KCNQ3 channels; assay: hyperpolarisation assay format, voltage-sensitive fluorescent dye, CHO cells expressing KCNQ channels; conditions: retigabine 30 μM, ΔF/F, control cells subtracted, FIG. 2
Description: FIG. 2: Effect of retigabine on the membrane potential of cells expressing KCNQ channels in a hyperpolarisation assay format. The time response of the fluorescence intensity in CHO cells expressing KCNQ channels before and after the application (arrow) of a known KCNQ channel opener (retigabine, 30 μM) is depicted.
The cells were seeded into assay plates and loaded with the dye in exactly the same way as described in Example 1. The measurements were carried out by a Fluostar or Polarstar fluorescence reader of the company BMG or the FlexStation of the company Molecular Devices. It was excited at a wavelength of 525 nm and detected at a wavelength of 560 nm. After incubation with the dye, the base line was monitored for 5 min. Then either 50 up ES buffer (control) or 50 μl of the KCNQ agonist retigabine (30 μM) were added and the fluorescence was monitored in an appropriate reader for 7.5 min.
In FIG. 2 the time response of the fluorescence intensity of CHO cells expressing KCNQ channels before and after the application (arrow) of the known KCNQ channel opener (retigabine, 30 μM) is depicted. The percental change in the fluorescence intensity (ΔF/F) based on the averaged fluorescence intensity before the application of retigabine is depicted. The course of the fluorescence of the control cells (application of buffer) was subtracted from the retigabine-induced fluorescence signal.

| Structure (SMILES) | difference of the amplitudes of the fluorescence responses in the presence and in the absence of a KCNQ channel blocker (dynamic range of the assay) ([1]; XE991 60 μM vs control cells) | fluorescence response after the potassium application in the presence of the blocker ([1]; saturating concentration of XE991 (60 μM), 30 min, control cells show increase by about 80%) | increase in the fluorescence intensity after application of the KCNQ channel blocker [2] | decrease in the fluorescence intensity after application of retigabine [3] |
| --- | --- | --- | --- | --- |
| O=C1c2ccccc2C(Cc2ccncc2)(Cc2ccncc2)c2ccccc21 [XE991] | about 80% | no increase in the fluorescence | about 55% | – |
| CCOC(=O)Nc1ccc(NCc2ccc(F)cc2)cc1N [retigabine] | – | – | – | 35-40% |
